Experimental data reported in patent publication US11078262B2, “High viscosity macromolecular compositions for treating ocular conditions” (ALLERGAN, INC., priority 2007, dated 2021).

Tested on: macula edema with central retinal vein occlusion and/or branch retinal vein occlusion
Assay: Treatment of macular edema with intravitreal MAAC composition (ETDRS visual acuity)
Format: in vivo, human
Conditions: patient; 1 mg intravitreal every 4 months; twelve months after the first injection
Experimental: An obese patient with symptoms of diabetes presents with vision loss due to macula edema with central retinal vein occlusion and/or branch retinal vein occlusion. They receive intravitreal injection of 1 mg of a high viscosity MAAC (polymeric hyaluronate based) solution containing COMPOUND D, such as the Example 13 formulation. Equivalent injections are made every 4 months.

Substance: siRNA Z (chain 1 CUGAGUUUAAAAGGCACCCTT; chain 2 TTGACUCAAAUUUUCCGUGGG; chemically modified, pattern not given here; one strand is listed 3' to 5') [COMPOUND D]
- improved best corrected visual acuity from baseline (ETDRS chart): fifteen
